The nature of data set [1]: Drug metabolism in human liver microsomes. The settings on record: read-out: Drug metabolism. Format: ADME.
Data set [2] is described as follows: Antiproliferative activity against human colon cancer cells. The class given is functional, cell-based. The settings on record: Cancer cell lines.
Data set [3] is described as follows: Cytotoxicity against human ARPE19 cells. The class given is cell-based. The settings on record: ARPE-19.
The next data set has as its system HUVEC. Kind of data set: Cytotoxicity against HUVEC. The class given is cell-based. The settings on record: Homo sapiens.
A further data set relates to Homo sapiens. Description: Toxicity in patient assessed as median survival time at 450 mg/m'2, iv administered per week. Format: organism-based. The settings on record: in vivo.
In the next data set the test system is MCF7. Kind of data set: Antiproliferative activity against human MCF7 cells. Format: functional, cell-based.
For the next data set, the target named is Heat shock protein HSP90 (Homo sapiens, UniProt P07900+P08238). Kind of data set: Inhibition of HSP90 (unknown origin). Format: protein assay.

Where only a bound is given, the exact number is not on record here.

On to `O=C1CCCC/C=C/CCOC(=O)c2c(O)cc(O)c(Cl)c2C1`, for which, in data set [1], the metabolised was found to be 90%. This compound displayed an IC50 in data set [2] of 7.6 µM.
`CO[C@H]1/C=C\C=C(/C)C(=O)NC2=C(c3ccccc3)C(=O)C(NCCN(C)C)=C(C[C@@H](C)C[C@H](OC)[C@H](O)[C@@H](C)/C=C(\C)[C@@H]1OC(N)=O)C2=O` (stereo in doubt): the IC50 (in data set [3]; with HUVEC) was less than 5 µM each time.
Turning to `C=CCNC1=C2C[C@@H](C)C[C@H](OC)[C@H](O)[C@@H](C)/C=C(\C)[C@H](OC(N)=O)[C@@H](OC)/C=C\C=C(/C)C(=O)NC(=CC1=O)C2=O` [TANESPIMYCIN], the MST with Homo sapiens turned out to be 232 days.
For `O=C(O[C@@H]1Cc2c(O)cc(O)cc2O[C@@H]1c1cc(O)c(O)c(O)c1)c1cc(O)c(O)c(O)c1` [EPIGALOCATECHIN GALLATE], in the data set with MCF7, the IC50 amounted to 74 µM.
For the compound `O=C1NCC/C=C/CCCC(C(=O)NCc2ccccc2)C(=O)Cc2c(Cl)c(O)cc(O)c21` (stereo unspecified), the metabolised in data set [1] is 47%. The IC50 in data set [2] turned out to be 0.6 µM; against Heat shock protein HSP90, 200 nM.
As for `CC(=O)Oc1ccc(C(=O)O[C@@H]2Cc3c(O)cc(O)cc3O[C@@H]2c2ccccc2)cc1CC=C(C)C`, half-maximal inhibition in the data set with MCF7 (IC50) required 4 µM.
Consider `C[C@@H]1C[C@H]2O[C@@H]2/C=C\C=C\C(=O)Cc2c(Cl)c(O)cc(O)c2C(=O)O1` [RADICICOL], for which the metabolised in data set [1] was 83%.

As a reminder, the IC50 is the midpoint of a concentration-inhibition curve. Higher therefore signals lower potency.

The values above are taken from ChEMBL document CHEMBL3352324, “Progress in the discovery and development of heat shock protein 90 (Hsp90) inhibitors” (J Med Chem, 2014).
